According to patent publication EP0082385A1, “1-(3-Nitrophenyl)pyrido(2,3-d)pyrimidine-2,4(1H,3H) diones and 1-(3-nitrophenyl)quinazoline-2-4(1H,3H)diones as cutaneous medicaments” (Troponwerke GmbH & Co. KG, priority 1981, dated 1983):
Where two headings read alike, the source gives them in different places.

Tests used:
[1] = system: durch Kaolin induzierten Ödems der Rattenpfote; experiment: Kaolin-induced rat paw oedema, substance applied to shorn back skin or given p.o.; type: in vivo, Ratte; details: for ED50: 5 h
[2] = system: Tachyphylaxie bei Ratten; experiment: Tachyphylaxis (loss of oedema-inhibiting effect) after repeated dosing in rats; type: in vivo
[3] = system: Carrageenan-Pfotenödems der Ratte; experiment: Carrageenan rat paw oedema, preparations of TVX; type: in vivo
Excerpt: Aufbereitung von TVX - Hemmung des Carrageenan-Pfotenödems der Ratte

[4] = system: emetische Erscheinungen beim Hund; details: dog, in vivo
Description: Die Vermeidung der Nebenwirkungen durch cutane Applikation von Verb. 1 ist nachfolgend beispielhaft für Verb. 1 beschrieben. • 1. Sowohl nach oraler als auch intramuskulärer Applikation von Verb. 1 treten bereits ab einer Dosis von etwa 0.1 mg/kg beim Hund starke emetische Erscheinungen auf. Diese emetische Wirkung beim Hund bleibt auch nach cutaner Applikation von 5 mg/kg der Substanz aus. • 2. Verb. […] Verb.

[5] = 0,3 mg/kg cutan, in Dimethylsulfoxid, rat, 5 h after oedema provocation
[6] = po, p.o., rat, read-out: DE50 (mg/kg) Kaolin-ödem p.o.

SMILES: COC(=O)c1ccccc1O [Salicyclsäuremethylester, Salicylsäuremethylester, reference compound]
- % Hemmung des Kaolin-ödems ([1]; solvent alone (without Verb. 1), cutan, rat): 39.4) %

SMILES: CCn1c(=O)c2ccccc2n(-c2cccc([N+](=O)[O-])c2)c1=O [Verb. 1, 1-(3-Nitrophenyl)-3-ethylchinazolin-2.4(1H, 3H)-dion]
- ödemhemmende Wirkung nach topischer Vorbehandlung ([2]; 6 days topical pretreatment, in Dimethylsulfoxid, 0.3 mg/kg/Tag): eindeutige ödemhemmende Wirkung
- Wirkungsverlust (Tachyphylaxie) ([2]; cutaneous application): vollständig vermieden
- Tachyphylaxie ([2]; oral doses over several days, seen after three to four days): deutliche Tachyphylaxie
- % Hemmung des Kaolin-ödems ([1]; 0,3 mg/kg cutan, in Cremophor, rat, n = 5): 14.2%
- % Hemmung des Kaolin-ödems ([1]; 0,3 mg/kg cutan, in Dimethylacetamid, rat, n = 5): 50.5%
- % Hemmung des Kaolin-ödems ([1]; 0,3 mg/kg cutan, in Dimethylformamid, rat, n = 5): 35.0%
- % Hemmung des Kaolin-ödems [1, 5]: 48.3%
- % Hemmung des Kaolin-ödems ([1]; 0,3 mg/kg cutan, in Erdnußöl, rat, n = 5): 16.7%
- % Hemmung des Kaolin-ödems ([1]; 0,3 mg/kg cutan, in Lutrol, rat, n = 5): 18.3%
- % Hemmung des Kaolin-ödems ([1]; 0,3 mg/kg cutan, in N-Methylpyrrolidon, rat, n = 5): 63.2%
- % Hemmung des Kaolin-ödems ([1]; 0,3 mg/kg cutan, in Ricinusöl, rat, n = 5): 14.2%
- % Hemmung des Kaolin-ödems ([1]; 0,3 mg/kg cutan, in Salicylsäuremethylester, rat, n = 5): 77.1%
- ED50 ([1]; Rattus norvegicus, topical, cutan in Dimethylsulfoxid, same antiphlogistic effect as 0,3 mg/kg oral, read-out: DE50 nach cutaner Applikation in Dimethylsulfoxid): 0.3 mg/kg
- ED50 [1, 6]: 0.3 mg/kg
- % Hemmung ([3]; preparation: TVX 0.03, Aceton 6.97, IPM 3.00 (total 10.00)): 51.3%
- % Hemmung ([3]; preparation: TVX 0.03, Aceton 9.97 (total 10.00)): 41.7%
- % Hemmung ([3]; preparation: TVX 0.03, Essigsäureethylester 6.97, IPM 3.00 (total 10.00)): 64.1%
- % Hemmung ([3]; preparation: TVX 0.03, Essigsäureethylester 9.97 (total 10.00)): 31.0%
- % Hemmung ([3]; preparation: TVX 0.03, IPM 3.00, Tween 2.00, Isopropanol 4.97 (total 10.00)): 55.1%
- % Hemmung ([3]; preparation: TVX 0.03, Milchsäureethylester 6.97, IPM 3.00 (total 10.00)): 50.6%
- % Hemmung ([3]; preparation: TVX 0.03, Milchsäureethylester 9.97 (total 10.00)): 42.0%
- % Hemmung ([3]; preparation: TVX 0.03, Tween 0.50, Dowanol DPM 9.47 (total 10.00)): 62.7%
- Dosis, ab der emetische Wirkung auftritt [4]: > 5 mg/kg
- Dosis, ab der starke emetische Erscheinungen auftreten [4]: ~0.1 mg/kg

SMILES: O=c1c2ccccc2n(-c2cccc([N+](=O)[O-])c2)c(=O)n1CCF [Verb. 2, 1-(3-Nitrophenyl)-3-(2-fluorethyl)-chinazolin-2,4(1H, 3H)dion]
- % Hemmung des Kaolin-ödems [1, 5]: 56.0%
- ED50 [1, 6]: 0.2 mg/kg

SMILES: CCn1c(=O)c2cccnc2n(-c2cccc([N+](=O)[O-])c2)c1=O [Verb. 3, 1-(3-Nitrophenyl)-3-ethylpyridoL2.3-d/pyrimidin-2,4(1H, 3H)dion]
- % Hemmung des Kaolin-ödems [1, 5]: 79.8%
- ED50 [1, 6]: 0.1 mg/kg
